Measurements taken from patent US10344019B2 (priority 2010, dated 2019).
pEC50: −log10 of the molar value. Like-named read-outs stand apart in the source and are kept apart here.

Tests used:
Assay type in all cases: cell-based
[1] = test system: HCV 2a Rluc cells (NS5A chimeric genotype 2a JFH-1 replicon with genotype 2a J6 strain NS5A gene, M31 present); experiment: HCV replicon reporter assay, genotype 2a J6 (M31 present); details: Hepatitis C virus, read-out: 2a J6
Experimental: Evaluation of cell-based anti-HCV activity: Antiviral potency (EC50) was determined using a Renilla luciferase (RLuc)-based HCV replicon reporter assay. To perform the assay for genotype 1 and 2a JFH-1, HCV 1b RLuc cells (harboring a dicistronic genotype 1b Con1 replicon that encodes a RLuc reporter), or HCV 1a RLuc cells (harboring a dicistronic genotype 1a H77 replicon that encodes a RLuc reporter), or HCV 2a JFH-1 Rluc cells (harboring a dicistronic genotype 2a JFH-1 replicon that encodes a RLuc reporter) were dispensed into 384-well plates. To perform the assay for genotype 2a (with M31 present) or 2b, HCV 2a Rluc or 2b Rluc cells (both with M31 present) harboring a dicistronic NS5A chimeric genotype 2a JFH-1 replicon that encodes a RLuc reporter and either genotype 2a J6 strain NS5A gene or genotype 2b MD2b-1 NS5A gene (based on Los Alamos HCV database isolates, both with M31 present) respectively, were dispensed into 384-well plates. To perform the assay for genotype 3 and 4, HCV 3a RLuc or 4a Rluc cells harboring a dicistronic NS5A chimeric genotype 1b Con1 replicon that encodes a RLuc reporter and either a consensus genotype 3a NS5A gene or genotype 4a NS5A gene (based on Los Alamos HCV database isolates) respectively, were dispensed into 384-well plates. Compounds were re-suspended in DMSO at a concentration of 10 mM and serially diluted in DMSO either manually or using an automated pipeting instrument. Serially diluted compounds were mixed with cell culture media and added to the seeded cells. […] 72 hours later, cells were lysed and Renilla luciferase activity quantified as recommended by the manufacturer (Promega-Madison, Wis.). Non-linear regression was performed to calculate EC50 values.

[2] = test system: HCV 4a Rluc cells (NS5A chimeric genotype 1b Con1 replicon with genotype 4a NS5A gene); experiment: microbe, parasite or virus in culture; details: Hepatitis C virus, read-out: 4a
In short: (§1)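 Replicon cells stably carrying the listed RLuc-encoding dicistronic replicons were seeded and treated with DMSO serial dilutions of compound (10 mM stocks) diluted into culture medium. After 72 h, cells were lysed and Renilla luciferase activity measured. EC50 was derived by non-linear regression.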

[3] = test system: HCV 1a RLuc cells (dicistronic genotype 1a H77 replicon, RLuc reporter); experiment: microbe, parasite or virus in culture; details: Hepatitis C virus, read-out: 1a
In short: as §1

[4] = test system: HCV 3a RLuc cells (NS5A chimeric genotype 1b Con1 replicon with consensus genotype 3a NS5A gene); experiment: microbe, parasite or virus in culture; details: Hepatitis C virus
In short: as §1

[5] = test system: HCV 2a JFH-1 Rluc cells (dicistronic genotype 2a JFH-1 replicon, RLuc reporter); experiment: microbe, parasite or virus in culture; details: Hepatitis C virus, genotype 2a JFH-1 replicon, read-out: 2a JFH
In short: as §1

[6] = test system: HCV 1b RLuc cells (dicistronic genotype 1b Con1 replicon, RLuc reporter); experiment: microbe, parasite or virus in culture; details: Hepatitis C virus, read-out: 1b (nM)
In short: as §1

[7] = read-out: 3a, genotype 3a replicon
[8] = 72 h, Table 2, genotype 1a H77 replicon, 72 hours
[9] = read-out: 3a, Table 2, genotype 3a NS5A chimeric replicon

Row | SMILES | pEC50 [1] | pEC50 [2] | pEC50 ([3]; genotype 1a replicon) | pEC50 [4, 7] | pEC50 [5] | EC50 [6] [nM] | pEC50 [3, 8] | pEC50 [4, 9] | pEC50 ([5]; 72 h, Table 2, 72 hours) | EC50 ([6]; 72 h) [nM]
1 | COC(=O)N[C@H](C(=O)N1[C@@H]2CC[C@@H](C2)[C@H]1c1nc2ccc3cc(-c4ccc5c(ccc6nc([C@@H]7CCCN7C(=O)[C@H](NC(=O)OC)c7ccccc7)[nH]c65)c4)ccc3c2[nH]1)C1CCOCC1 [Example 345] | 9.00 to 12.00 | 9.00 to 12.00 | 9.00 to 12.00 | 9.00 to 12.00 | 9.00 to 12.00 | 0.066 | – | – | – | –
2 | COC(=O)N[C@H](C(=O)N1[C@@H]2CC[C@@H](C2)[C@H]1c1nc2ccc3cc(-c4ccc5c(ccc6nc([C@@H]7C[C@H]8C[C@H]8N7C(=O)[C@@H](NC(=O)OC)C(C)C)[nH]c65)c4)ccc3c2[nH]1)C(C)C [Example 405] | 7.36 to 9.00 | 9.00 to 12.00 | 9.00 to 12.00 | 9.00 to 12.00 | 9.00 to 12.00 | 0.009 | – | – | – | –
3 | COC(=O)NC(C(=O)N1CCC[C@H]1c1ncc(-c2ccc(-c3ccc4c(ccc5nc([C@@H]6[C@H]7CC[C@H](C7)N6C(=O)[C@@H](NC(=O)OC)C(C)C)[nH]c54)c3)cc2)[nH]1)[C@@H](C)OC (stereo partly drawn) [Example 68] | 7.36 to 9.00 | 9.00 to 12.00 | – | – | – | – | 9.00 to 12.00 | 9.00 to 12.00 | 9.00 to 12.00 | 0.025
4 | COC(=O)NC(C(=O)N1CCC[C@H]1c1ncc(-c2ccc(-c3ccc4c(ccc5nc([C@@H]6[C@H]7CC[C@H](C7)N6C(=O)[C@@H](NC(=O)OC)C(C)C)[nH]c54)c3)cc2)[nH]1)C(C)C (stereo partly drawn) [Example 65] | < 7.36 | 9.00 to 12.00 | – | – | – | – | 9.00 to 12.00 | 9.00 to 12.00 | 9.00 to 12.00 | 0.015
5 | COC(=O)N[C@H](C(=O)N1CCC[C@H]1c1nc2ccc3cc(-c4ccc(-c5cnc([C@@H]6[C@H]7CC[C@H](C7)N6C(=O)[C@@H](NC(=O)OC)[C@@H](C)OC)[nH]5)cc4)ccc3c2[nH]1)C(C)C [Example 55] | < 7.36 | 9.00 to 12.00 | – | – | – | – | 9.00 to 12.00 | 9.00 to 12.00 | 9.00 to 12.00 | 0.015
6 | COC(=O)NC(C(=O)N1CCC[C@H]1c1ncc(-c2ccc(-c3ccc4c(ccc5nc([C@@H]6[C@H]7CC[C@H](C7)N6C(=O)[C@@H](NC(=O)OC)[C@@H](C)OC)[nH]c54)c3)cc2)[nH]1)C(C)C (stereo partly drawn) [Example 66] | < 7.36 | 9.00 to 12.00 | – | – | – | – | 9.00 to 12.00 | 9.00 to 12.00 | 9.00 to 12.00 | 0.022
7 | COC(=O)N[C@H](C(=O)N1[C@@H]2CC[C@@H](C2)[C@H]1c1ncc(-c2ccc(-c3ccc4c(ccc5nc([C@@H]6C[C@H]7C[C@H]7N6C(=O)[C@@H](NC(=O)OC)C(C)C)[nH]c54)c3)cc2)[nH]1)C(C)C [Example 98] | < 7.36 | 9.00 to 12.00 | – | – | – | – | 9.00 to 12.00 | 8.30 to 9.00 | 9.00 to 12.00 | 0.01
8 | COC(=O)N[C@H](C(=O)N1CCC[C@H]1c1nc(Cl)c(-c2ccc3c(c2)OCc2c-3ccc(-c3[nH]c([C@@H]4CCCN4C(=O)[C@@H](NC(=O)OC)C(C)C)nc3Cl)c2F)[nH]1)C(C)C [Example 404] | < 7.36 | 9.00 to 12.00 | 9.00 to 12.00 | 9.00 to 12.00 | 9.00 to 12.00 | 0.008 | – | – | – | –
9 | COC(=O)N[C@H](C(=O)N1CCC[C@H]1c1nc2ccc3cc(-c4ccc(-c5cnc([C@@H]6CC7(CN6C(=O)[C@H](C(C)C)C(C)C(=O)OC)OCCO7)[nH]5)cc4)ccc3c2[nH]1)[C@@H](C)OC (stereo partly drawn) [Example 80] | < 7.36 | 9.00 to 12.00 | – | – | – | – | 9.00 to 12.00 | 9.00 to 12.00 | 9.00 to 12.00 | 0.072
10 | COC(=O)N[C@H](C(=O)N1CCC[C@H]1c1nc2ccc3cc(-c4ccc(-c5[nH]c([C@@H]6[C@H]7CC[C@H](C7)N6C(=O)[C@H](NC(=O)OC)c6ccccc6)nc5Cl)cc4)ccc3c2[nH]1)C(C)C [Example 402] | < 7.36 | 9.00 to 12.00 | 9.00 to 12.00 | 9.00 to 12.00 | 9.00 to 12.00 | 0.015 | – | – | – | –
11 | COC(=O)N[C@H](C(=O)N1CCC[C@H]1c1ncc(-c2cc3c4c(c2)COc2cc(-c5cnc([C@@H]6CCCN6C(=O)[C@@H](NC(=O)OC)C(C)C)[nH]5)cc(c2-4)CC3)[nH]1)C(C)C [Example 370] | < 7.36 | 9.00 to 12.00 | 9.00 to 12.00 | 9.00 to 12.00 | 9.00 to 12.00 | 0.028 | – | – | – | –
12 | COC(=O)N[C@H](C(=O)N1CCC[C@H]1c1ncc(-c2cc3c4c(c2)OCc2cc(-c5[nH]c([C@@H]6CCCN6C(=O)[C@@H](NC(=O)OC)C(C)C)nc5Cl)cc(c2-4)OC3)[nH]1)C(C)C [Example 389] | 7.36 to 9.00 | 9.00 to 12.00 | 9.00 to 12.00 | 9.00 to 12.00 | 9.00 to 12.00 | 0.015 | – | – | – | –
13 | COC(=O)N[C@H](C(=O)N1[C@@H]2CC[C@@H](C2)[C@H]1c1nc2ccc3cc(-c4ccc(-c5cnc([C@@H]6C[C@H]7C[C@H]7N6C(=O)[C@@H](NC(=O)OC)C(C)C)[nH]5)c(F)c4)ccc3c2[nH]1)C(C)C [Example 391] | < 7.36 | 9.00 to 12.00 | 9.00 to 12.00 | < 8.30 | 9.00 to 12.00 | 0.009 | – | – | – | –
14 | COC(=O)N[C@H](C(=O)N1CCC[C@H]1c1nc2ccc3cc(-c4ccc(-c5cnc([C@@H]6[C@H]7CC[C@H](C7)N6C(=O)[C@H](NC(=O)OC)c6ccccc6)[nH]5)cc4)ccc3c2[nH]1)C(C)C [Example 54] | < 7.36 | 9.00 to 12.00 | – | – | – | – | 9.00 to 12.00 | 9.00 to 12.00 | 9.00 to 12.00 | 0.014
15 | COC(=O)N[C@H](C(=O)N1[C@@H]2CC[C@@H](C2)[C@H]1c1ncc(-c2ccc(-c3ccc4c(ccc5nc([C@@H]6CCCN6C(=O)[C@H](NC(=O)OC)c6ccccc6)[nH]c54)c3)cc2)[nH]1)C(C)C [Example 315] | 7.36 to 9.00 | 9.00 to 12.00 | 9.00 to 12.00 | 9.00 to 12.00 | 9.00 to 12.00 | 0.023 | – | – | – | –
16 | COC(=O)N[C@H](C(=O)N1CCC[C@H]1c1ncc(-c2ccc3c(c2)COc2cc(-c4cnc([C@@H]5CCCN5C(=O)[C@@H](NC(=O)OC)C(C)C)[nH]4)cc(F)c2-3)[nH]1)C(C)C [Example 393] | < 7.36 | 9.00 to 12.00 | 9.00 to 12.00 | 9.00 to 12.00 | 9.00 to 12.00 | 0.012 | – | – | – | –
17 | COC(=O)N[C@@H](C(=O)N1[C@@H]2CC[C@@H](C2)[C@H]1c1nc2ccc3cc(-c4ccc5c(ccc6nc([C@@H]7C[C@H]8C[C@H]8N7C(=O)[C@H](NC(=O)OC)c7ccccc7)[nH]c65)c4)ccc3c2[nH]1)c1ccccc1 [Example 406] | 9.00 to 12.00 | 9.00 to 12.00 | 9.00 to 12.00 | 9.00 to 12.00 | 9.00 to 12.00 | 0.017 | – | – | – | –
18 | COC(=O)N[C@H](C(=O)N1[C@@H]2C[C@@H]2C[C@H]1c1ncc(-c2ccc(-c3ccc4c(ccc5nc([C@@H]6C[C@H]7C[C@H]7N6C(=O)[C@@H](NC(=O)OC)C(C)C)[nH]c54)c3)cc2F)[nH]1)C(C)C [Example 390] | < 7.36 | 9.00 to 12.00 | 9.00 to 12.00 | 8.30 to 9.00 | 9.00 to 12.00 | 0.003 | – | – | – | –
19 | COC(=O)N[C@H](C(=O)N1CCC[C@H]1c1nnc(-c2ccc(-c3ccc4c(ccc5nc([C@@H]6CCCN6C(=O)[C@@H](NC(=O)OC)C(C)C)[nH]c54)c3)cc2)[nH]1)C(C)C [Example 407] | < 7.36 | 9.00 to 12.00 | 9.00 to 12.00 | 8.30 to 9.00 | 9.00 to 12.00 | 0.048 | – | – | – | –
20 | COC(=O)N[C@H](C(=O)N1CCC[C@H]1c1nc(Cl)c(-c2cc3c4c(c2)OCc2cc(-c5[nH]c([C@@H]6CCCN6C(=O)[C@H](NC(=O)OC)c6ccccc6)nc5Cl)cc(c2-4)OC3)[nH]1)C(C)C [Example 399] | 9.00 to 12.00 | 9.00 to 12.00 | 9.00 to 12.00 | 9.00 to 12.00 | 9.00 to 12.00 | 0.017 | – | – | – | –
